Assay results from patent US7642245B2, “Antibacterial compounds having a (pyrrole carboxamide)-(benzamide)-(imidazole carboxamide) motif” (Oscient Pharmaceuticals Corporation, priority 2002, dated 2010).

Tests used:
[1] = test system: Streptococcus pneumoniae ATCC 49619; assay: Disc diffusion of non-formulated compounds; format: cell-based; conditions: ATCC49619, non-formulated compound, 30 μg/disc, S. pneumoniae ATCC 49619 on TSA + 5% Sheep Blood, 6.3 mm disc = no inhibition zone, read-out: Zone Diameter (nearest whole mm)
Experimental: (§1) The diffusion assays on a compound of this invention were performed according to NCCLS Guidelines (Performance Standards for Antimicrobial Susceptibility Testing, M100-S12 vol. 22 and Performance Standards for Antimicrobial Disk Susceptibility Tests, M2-A7 vol. 20) with the following modifications: Generally, diffusion of the drug from the inoculation site (the disk or the well, as the case may be) through the agar creates a concentration gradient of the test compound. Bacterial growth is inhibited by the drug, creating a zone of inhibition. […] The activity of the compound was determined by measurement of the zone of inhibition surrounding the disk. The results are provided in Tables C, D, and E. The diffusion results of Table C measure the diffusion of free compound. The diffusion results of Tables D and E measure the diffusion of compound formulated into a cream.

[2] = test system: Staphylococcus aureus ATCC 13709; assay: Disc diffusion of non-formulated compounds; format: cell-based; conditions: ATCC13709, non-formulated compound, 30 μg/disc, S. aureus ATCC 13709 on TSA, 6.3 mm disc = no inhibition zone, read-out: Zone Diameter (nearest whole mm)
Experimental: as §1

[3] = test system: Enterococcus faecalis ATCC 29212; assay: Disc diffusion of non-formulated compounds; format: cell-based; conditions: ATCC29212, non-formulated compound, 30 μg/disc, E. faecalis ATCC 29212 on TSA + 5% Sheep Blood, 6.3 mm disc = no inhibition zone, read-out: Zone Diameter (nearest whole mm)
Experimental: as §1

[4] = test system: M. catarrhalis (ATCC 25238); assay: MIC, NCCLS broth microdilution; format: cell-based, Moraxella (now Branhamella) catarrhalis; conditions: H = M. catarrhalis (ATCC 25238)
Outline: (§2)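 Antibacterial MICs against B. cereus, methicillin-resistant S. aureus and M. catarrhalis were measured by the NCCLS reference broth microdilution method. Yeast testing applied the Manual of Clinical Microbiology antifungal protocol.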

[5] = test system: C. albicans ATCC 38247; assay: MIC, antifungal assay; format: cell-based, Candida albicans; conditions: F = C. albicans ATCC 38247
Outline: as §2

[6] = test system: E. coli ATCC 25922; assay: MIC, NCCLS broth microdilution; format: cell-based, Escherichia coli; conditions: G = E. coli ATCC 25922
Outline: (§3)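 Minimal inhibitory concentration determined by NCCLS broth microdilution in microtiter plates per documents M7-A4, M11-A4 and M27-T. S. aureus ATCC 27660 is a methicillin-resistant strain. The antifungal test on C. albicans followed the method recommended in the Manual of Clinical Microbiology (1995).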

[7] = test system: B. cereus ATCC 11778; assay: MIC, NCCLS broth microdilution; format: cell-based, Bacillus cereus; conditions: D = B. cereus ATCC 11778
Outline: as §2

[8] = test system: E. faecalis ATCC 29212; assay: MIC, NCCLS broth microdilution; format: cell-based, Enterococcus faecalis; conditions: C = E. faecalis ATCC 29212
Outline: as §3

[9] = test system: S. aureus ATCC 27660; assay: MIC, NCCLS broth microdilution; format: cell-based, Staphylococcus aureus; conditions: B = S. aureus ATCC 27660 (MRSA)
Outline: as §2

[10] = test system: S. aureus ATCC 13709; assay: MIC, NCCLS broth microdilution; format: cell-based, Staphylococcus aureus; conditions: A = S. aureus ATCC 13709 (MSSA)
Outline: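 MIC values come from microtiter-plate broth microdilution run to NCCLS standards (M7-A4, M11-A4, M27-T). For C. albicans ATCC 38247, the antifungal procedure of the 1995 Manual of Clinical Microbiology was used instead.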

[11] = test system: S. pneumoniae ATCC 49619; assay: MIC, NCCLS broth microdilution; format: cell-based, Streptococcus pneumoniae; conditions: E = S. pneumoniae ATCC 49619
Outline: as §3

Row | Compound | zone of inhibition at 30 µg/disc [1] [mm] | zone of inhibition at 30 µg/disc [2] [mm] | zone of inhibition at 30 µg/disc [3] [mm] | Minimum Inhibitory Concentration (MIC) [4] | Minimum Inhibitory Concentration (MIC) [5] | Minimum Inhibitory Concentration (MIC) [6] [µg/mL] | Minimum Inhibitory Concentration (MIC) [7] | Minimum Inhibitory Concentration (MIC) [8] | Minimum Inhibitory Concentration (MIC) [9] | Minimum Inhibitory Concentration (MIC) [10] | Minimum Inhibitory Concentration (MIC) [11]
1 | CN[C@H](CC(C)C)C(=O)N[C@H]1C(=O)N[C@@H](CC(N)=O)C(=O)N[C@H]2C(=O)N[C@H]3C(=O)N[C@H](C(=O)N[C@H](C(=O)O)c4cc(O)cc(O)c4-c4cc3ccc4O)[C@H](O)c3ccc(c(Cl)c3)Oc3cc2cc(c3O[C@@H]2O[C@H](CO)[C@@H](O)[C@H](O)[C@H]2O[C@H]2C[C@](C)(N)[C@H](O)[C@H](C)O2)Oc2ccc(cc2Cl)[C@H]1O [Vancomycin] | 19 | 15 | 15 |  |  |  |  |  |  |  | 
2 | Cn1cc(NC(=O)c2cc3ccccc3cn2)cc1C(=O)Nc1ccc(C(=O)Nc2cn(C)c(C(=O)NCCN3CCC(OC(=O)CNC(=O)C4OC(O)C(O)C(O)C4O)CC3)n2)cc1 (stereo not drawn) [Compound A-74] |  |  |  | >32 µg/mL | >32 µg/mL | >32 | +++ (MIC ≦ 4 μg/mL) | +++ (MIC ≦ 4 μg/mL) | +++ (MIC ≦ 4 μg/mL) | +++ (MIC ≦ 4 μg/mL) | +++ (MIC ≦ 4 μg/mL)
3 | CCN(CCNC(=O)c1nc(NC(=O)c2ccc(NC(=O)c3cc(NC(=O)c4cc5ccccc5cn4)cn3C)cc2)cn1C)CCOC [Compound A-21] |  |  |  | +++ (MIC ≦ 4 μg/mL) | >32 µg/mL | >32 | +++ (MIC ≦ 4 μg/mL) | +++ (MIC ≦ 4 μg/mL) | +++ (MIC ≦ 4 μg/mL) | +++ (MIC ≦ 4 μg/mL) | +++ (MIC ≦ 4 μg/mL)
4 | COCCN(CCNC(=O)c1nc(NC(=O)c2ccc(NC(=O)c3cc(NC(=O)c4cc5ccccc5cn4)cn3C)cc2)cn1C)CCOC [Compound A-22] |  |  |  | +++ (MIC ≦ 4 μg/mL) | >32 µg/mL | >32 | +++ (MIC ≦ 4 μg/mL) | +++ (MIC ≦ 4 μg/mL) | +++ (MIC ≦ 4 μg/mL) | +++ (MIC ≦ 4 μg/mL) | +++ (MIC ≦ 4 μg/mL)
5 | Cn1cc(NC(=O)c2cc3ccccc3cn2)cc1C(=O)Nc1ccc(C(=O)Nc2cn(C)c(C(=O)NCCN3CCN(C(=O)CN)CC3)n2)cc1 [Compound A-65] |  |  |  | +++ (MIC ≦ 4 μg/mL) | ++ (4 < MIC < 12 μg/mL) | >32 | +++ (MIC ≦ 4 μg/mL) | +++ (MIC ≦ 4 μg/mL) | +++ (MIC ≦ 4 μg/mL) | +++ (MIC ≦ 4 μg/mL) | +++ (MIC ≦ 4 μg/mL)
6 | Cn1cc(NC(=O)c2cc3ccccc3cn2)cc1C(=O)Nc1ccc(C(=O)Nc2cn(C)c(C(=O)NCCN3CCN(CCOC(=O)CNC(=O)C4OC(O)C(O)C(O)C4O)CC3)n2)cc1 (stereo not drawn) [Compound A-76] |  |  |  | +++ (MIC ≦ 4 μg/mL) | >32 µg/mL | >32 | +++ (MIC ≦ 4 μg/mL) | +++ (MIC ≦ 4 μg/mL) | +++ (MIC ≦ 4 μg/mL) | +++ (MIC ≦ 4 μg/mL) | +++ (MIC ≦ 4 μg/mL)
7 | CCN1CCN(CCNC(=O)c2nc(NC(=O)c3ccc(NC(=O)c4cc(NC(=O)c5cc6ccccc6cn5)cn4C)cc3)cn2C)CC1 [Compound A-13] |  |  |  | +++ (MIC ≦ 4 μg/mL) | >32 µg/mL | >32 | +++ (MIC ≦ 4 μg/mL) | +++ (MIC ≦ 4 μg/mL) | +++ (MIC ≦ 4 μg/mL) | +++ (MIC ≦ 4 μg/mL) | +++ (MIC ≦ 4 μg/mL)
